Assay results from patent US8952024B2, “Herbicidal pyrimidone derivatives” (E I du Pont de Nemours and Company, priority 2009, dated 2015).

Experiments:
Experiment in all cases: Test B pre-/postemergence plant response
Format in all cases: in vivo
soybean (Glycine max) = details: Postemergence
Excerpt: (§1) Seeds of plant species selected from blackgrass (Alopecurus myosuroides), downy bromegrass (Bromus tectorum), green foxtail (Setaria viridis), Italian ryegrass (Lolium multiflorum), wheat (Triticum aestivum), wild oat (Avena fatua), deadnettle (henbit deadnettle, Lamium amplexicaule), galium (catchweed bedstraw, Galium aparine), bermudagrass (Cynodon dactylon), Surinam grass (Brachiaria decumbens), cocklebur (Xanthium strumarium), corn (Zea mays), large crabgrass (Digitaria sanguinalis), woolly cupgrass (Eriochloa villosa), giant foxtail (Setaria faberii), goosegrass (Eleusine indica), johnsongrass (Sorghum halepense), kochia (Kochia scoparia), lambsquarters (Chenopodium album), morningglory (Ipomoea coccinea), nightshade (eastern black nightshade, Solanum ptycanthum), yellow nutsedge (Cyperus esculentus), pigweed (Amaranthus retroflexus), ragweed (common ragweed, Ambrosia elatior), Russian thistle (Salsola kali), soybean (Glycine max), sunflower (common oilseed sunflower, Helianthus annuus) and velvetleaf (Abutilon theophrasti) were planted into a blend of loam soil and sand and treated preemergence with test compounds formulated in a non-phytotoxic solvent mixture which included a surfactant.
(§2) At the same time, plants selected from these crop and weed species and also winter barley (Hordeum vulgare), canarygrass (Phalaris minor), chickweed (Stellaria media) and windgrass (Apera spica-venti) were planted in pots containing Redi-Earth® planting medium (Scotts Company, 14111 Scottslawn Road, Marysville, Ohio 43041) comprising spaghnum peat moss, vermiculite, wetting agent and starter nutrients and treated with postemergence applications of some of the test chemicals formulated in the same manner. Plants ranged in height from 2 to 18 cm (1- to 4-leaf stage) for postemergence treatments.
(§3) Treated plants and controls were maintained in a greenhouse for 13 to 15 days, after which time all treated plants were visually evaluated and compared to controls. Plant response ratings, summarized in Table B, are based on a scale of 0 to 100 where 0 is no effect and 100 is complete control. A dash (-) response means no test result.

[1] = test system: cocklebur (Xanthium strumarium); details: Postemergence
Excerpt: as §1, §2, §3

[2] = test system: velvetleaf (Abutilon theophrasti); details: Postemergence
Excerpt: as §1, §2, §3

[3] = test system: yellow nutsedge (Cyperus esculentus); details: Postemergence
Excerpt: as §1, §2, §3

corn (Zea mays) = details: Postemergence
Excerpt: as §1, §2, §3

[4] = test system: large crabgrass (Digitaria sanguinalis); details: Postemergence
Excerpt: as §1, §2, §3

[5] = test system: blackgrass (Alopecurus myosuroides); details: for Plant response rating, Blackgrass: Postemergence; for Blackgrass plant response rating (0 to 100 scale): 62 g ai/ha, postemergence, 0 is no effect, 100 is complete control
Excerpt: as §1, §2, §3

[6] = test system: giant foxtail (Setaria faberii); details: Postemergence
Excerpt: as §1, §2, §3

[7] = test system: morningglory (Ipomoea coccinea); details: Postemergence
Excerpt: as §1, §2, §3

kochia (Kochia scoparia) = details: Postemergence
Excerpt: as §1, §2, §3

wild oat (Avena fatua) = details: Postemergence
Excerpt: as §1, §2, §3

[8] = test system: green foxtail (Setaria viridis); details: Postemergence
Excerpt: as §1, §2, §3

[9] = test system: downy bromegrass (Bromus tectorum); details: for Plant response rating, Bromegrass, Downy: Postemergence; for Bromegrass, Downy plant response rating (0 to 100 scale): 62 g ai/ha, postemergence, 0 is no effect, 100 is complete control
Excerpt: as §1, §2, §3

[10] = test system: goosegrass (Eleusine indica); details: Postemergence
Excerpt: as §1, §2, §3

[11] = test system: johnsongrass (Sorghum halepense); details: Postemergence
Excerpt: as §1, §2, §3

[12] = test system: woolly cupgrass (Eriochloa villosa); details: Postemergence
Excerpt: as §1, §2, §3

[13] = 31 g ai/ha, 0 to 100 scale (0 no effect, 100 complete control)
[14] = 125 g ai/ha, scale 0 to 100 (0 no effect, 100 complete control)
[15] = 250 g ai/ha, scale 0 to 100 (0 no effect, 100 complete control), 13 to 15 days

## O=C1CCCC(O)=C1C(=O)c1cnc(-c2ccccc2)n(C2CC[S+]([O-])CC2)c1=O (mixture of isomers) [Compound 169, 5-[(2-hydroxy-6-oxo-1-cyclohexen-1-yl)carbonyl]-2-phenyl-3-(trans/cis-tetrahydro-1-oxido-2H-thiopyran-4-yl)-4(3H)-pyrimidinone]
Soybean (Glycine max); 16 g ai/ha, 0 to 100 scale
  Plant response rating, Soybean: 55
Soybean (Glycine max); [13]
  Plant response rating, Soybean: 90
Soybean (Glycine max); [14]
  Plant response rating, Soybean: 95
[1]; 16 g ai/ha, 0 to 100 scale
  Plant response rating, Cocklebur: 100
[1]; [13]
  Plant response rating, Cocklebur: 100
[1]; [14]
  Plant response rating, Cocklebur: 100
[2]; 16 g ai/ha, 0 to 100 scale
  Plant response rating, Velvetleaf: 75
[2]; [13]
  Plant response rating, Velvetleaf: 100
[2]; [14]
  Plant response rating, Velvetleaf: 100
[3]; 16 g ai/ha, 0 to 100 scale
  Plant response rating, Nutsedge, Yellow: 0
[3]; [13]
  Plant response rating, Nutsedge, Yellow: 0
[3]; [14]
  Plant response rating, Nutsedge, Yellow: 55
Corn (Zea mays); 16 g ai/ha, 0 to 100 scale
  Plant response rating, Corn: 20
Corn (Zea mays); [13]
  Plant response rating, Corn: 45
Corn (Zea mays); [14]
  Plant response rating, Corn: 55
[4]; 16 g ai/ha, 0 to 100 scale
  Plant response rating, Crabgrass, Large: 75
[4]; [13]
  Plant response rating, Crabgrass, Large: 85
[4]; [14]
  Plant response rating, Crabgrass, Large: 100
[5]; 16 g ai/ha, 0 to 100 scale
  Plant response rating, Blackgrass: 0
[5]; 13 to 15 days
  Blackgrass plant response rating (0 to 100 scale): 5
[5]; [13]
  Plant response rating, Blackgrass: 5
[5]; [14]
  Plant response rating, Blackgrass: 10
[6]; 16 g ai/ha, 0 to 100 scale
  Plant response rating, Foxtail, Giant: 75
[6]; [13]
  Plant response rating, Foxtail, Giant: 95
[6]; [14]
  Plant response rating, Foxtail, Giant: 100
[7]; 16 g ai/ha, 0 to 100 scale
  Plant response rating, Morningglory: 95
[7]; [13]
  Plant response rating, Morningglory: 95
[7]; [14]
  Plant response rating, Morningglory: 100
Kochia (Kochia scoparia); 16 g ai/ha, 0 to 100 scale
  Plant response rating, Kochia: 100
Kochia (Kochia scoparia); [13]
  Plant response rating, Kochia: 100
Kochia (Kochia scoparia); [14]
  Plant response rating, Kochia: 100
Wild oat (Avena fatua); 16 g ai/ha, 0 to 100 scale
  Plant response rating, Oat, Wild: 0
Wild oat (Avena fatua); [13]
  Plant response rating, Oat, Wild: 0
Wild oat (Avena fatua); [14]
  Plant response rating, Oat, Wild: 85
[8]; 16 g ai/ha, 0 to 100 scale
  Plant response rating, Foxtail, Green: 45
[8]; [13]
  Plant response rating, Foxtail, Green: 60
[8]; [14]
  Plant response rating, Foxtail, Green: 95
[9]; 16 g ai/ha, 0 to 100 scale
  Plant response rating, Bromegrass, Downy: 0
[9]; 13 to 15 days
  Bromegrass, Downy plant response rating (0 to 100 scale): 40
[9]; [13]
  Plant response rating, Bromegrass, Downy: 10
[9]; [14]
  Plant response rating, Bromegrass, Downy: 90
[10]; 16 g ai/ha, 0 to 100 scale
  Plant response rating, Goosegrass: 80
[10]; [13]
  Plant response rating, Goosegrass: 95
[10]; [14]
  Plant response rating, Goosegrass: 100
[11]; 16 g ai/ha, 0 to 100 scale
  Plant response rating, Johnsongrass: 40
[11]; [13]
  Plant response rating, Johnsongrass: 60
[11]; [14]
  Plant response rating, Johnsongrass: 65
[12]; 16 g ai/ha, 0 to 100 scale
  Plant response rating, Cupgrass, Woolly: 75
[12]; [13]
  Plant response rating, Cupgrass, Woolly: 85
[12]; [14]
  Plant response rating, Cupgrass, Woolly: 100

## CCCn1c(-c2cc(Cl)cc(Cl)c2)ncc(C(=O)C2=C(O)CCCC2=O)c1=O [Compound 173]
Soybean (Glycine max); [13]
  Plant response rating, Soybean: 60
Soybean (Glycine max); [14]
  Plant response rating, Soybean: 95
Soybean (Glycine max); [15]
  Plant response rating, Soybean: 100
[1]; [13]
  Plant response rating, Cocklebur: 60
[1]; [14]
  Plant response rating, Cocklebur: 100
[1]; [15]
  Plant response rating, Cocklebur: 100
[2]; [13]
  Plant response rating, Velvetleaf: 100
[2]; [14]
  Plant response rating, Velvetleaf: 100
[2]; [15]
  Plant response rating, Velvetleaf: 100
[3]; [13]
  Plant response rating, Nutsedge, Yellow: 45
[3]; [14]
  Plant response rating, Nutsedge, Yellow: 60
[3]; [15]
  Plant response rating, Nutsedge, Yellow: 75
Corn (Zea mays); [13]
  Plant response rating, Corn: 5
Corn (Zea mays); [14]
  Plant response rating, Corn: 60
Corn (Zea mays); [15]
  Plant response rating, Corn: 85
[4]; [13]
  Plant response rating, Crabgrass, Large: 70
[4]; [14]
  Plant response rating, Crabgrass, Large: 95
[4]; [15]
  Plant response rating, Crabgrass, Large: 100
[5]; 13 to 15 days
  Blackgrass plant response rating (0 to 100 scale): 10
[5]; [13]
  Plant response rating, Blackgrass: 5
[5]; [14]
  Plant response rating, Blackgrass: 30
[5]; [15]
  Plant response rating, Blackgrass: 50
[6]; [13]
  Plant response rating, Foxtail, Giant: 95
[6]; [14]
  Plant response rating, Foxtail, Giant: 100
[6]; [15]
  Plant response rating, Foxtail, Giant: 100
[7]; [13]
  Plant response rating, Morningglory: 75
[7]; [14]
  Plant response rating, Morningglory: 80
[7]; [15]
  Plant response rating, Morningglory: 95
Kochia (Kochia scoparia); [13]
  Plant response rating, Kochia: 65
Kochia (Kochia scoparia); [14]
  Plant response rating, Kochia: 98
Kochia (Kochia scoparia); [15]
  Plant response rating, Kochia: 100
Wild oat (Avena fatua); [13]
  Plant response rating, Oat, Wild: 50
Wild oat (Avena fatua); [14]
  Plant response rating, Oat, Wild: 70
Wild oat (Avena fatua); [15]
  Plant response rating, Oat, Wild: 85
[8]; [13]
  Plant response rating, Foxtail, Green: 55
[8]; [14]
  Plant response rating, Foxtail, Green: 90
[8]; [15]
  Plant response rating, Foxtail, Green: 90
[9]; 13 to 15 days
  Bromegrass, Downy plant response rating (0 to 100 scale): 25
[9]; [13]
  Plant response rating, Bromegrass, Downy: 5
[9]; [14]
  Plant response rating, Bromegrass, Downy: 40
[9]; [15]
  Plant response rating, Bromegrass, Downy: 70
[10]; [13]
  Plant response rating, Goosegrass: 80
[10]; [14]
  Plant response rating, Goosegrass: 95
[10]; [15]
  Plant response rating, Goosegrass: 100
[11]; [13]
  Plant response rating, Johnsongrass: 65
[11]; [14]
  Plant response rating, Johnsongrass: 95
[12]; [13]
  Plant response rating, Cupgrass, Woolly: 85
[12]; [14]
  Plant response rating, Cupgrass, Woolly: 100
[12]; [15]
  Plant response rating, Cupgrass, Woolly: 100

## O=C1CCCC(O)=C1C(=O)c1cnc(-c2ccsc2)n(C2CCOCC2)c1=O [Compound 186]
Soybean (Glycine max); [13]
  Plant response rating, Soybean: 85
Soybean (Glycine max); [14]
  Plant response rating, Soybean: 100
Soybean (Glycine max); [15]
  Plant response rating, Soybean: 100
[1]; [13]
  Plant response rating, Cocklebur: 90
[1]; [14]
  Plant response rating, Cocklebur: 100
[1]; [15]
  Plant response rating, Cocklebur: 100
[2]; [13]
  Plant response rating, Velvetleaf: 70
[2]; [14]
  Plant response rating, Velvetleaf: 100
[2]; [15]
  Plant response rating, Velvetleaf: 100
[3]; [13]
  Plant response rating, Nutsedge, Yellow: 65
[3]; [14]
  Plant response rating, Nutsedge, Yellow: 75
[3]; [15]
  Plant response rating, Nutsedge, Yellow: 80
Corn (Zea mays); [13]
  Plant response rating, Corn: 10
Corn (Zea mays); [14]
  Plant response rating, Corn: 30
Corn (Zea mays); [15]
  Plant response rating, Corn: 65
[4]; [13]
  Plant response rating, Crabgrass, Large: 80
[4]; [14]
  Plant response rating, Crabgrass, Large: 85
[4]; [15]
  Plant response rating, Crabgrass, Large: 95
[5]; 13 to 15 days
  Blackgrass plant response rating (0 to 100 scale): 0
[5]; [13]
  Plant response rating, Blackgrass: 0
[5]; [14]
  Plant response rating, Blackgrass: 5
[5]; [15]
  Plant response rating, Blackgrass: 20
[6]; [13]
  Plant response rating, Foxtail, Giant: 75
[6]; [14]
  Plant response rating, Foxtail, Giant: 95
[6]; [15]
  Plant response rating, Foxtail, Giant: 95
[7]; [13]
  Plant response rating, Morningglory: 95
[7]; [14]
  Plant response rating, Morningglory: 100
[7]; [15]
  Plant response rating, Morningglory: 100
Kochia (Kochia scoparia); [13]
  Plant response rating, Kochia: 75
Kochia (Kochia scoparia); [14]
  Plant response rating, Kochia: 100
Kochia (Kochia scoparia); [15]
  Plant response rating, Kochia: 100
Wild oat (Avena fatua); [13]
  Plant response rating, Oat, Wild: 0
Wild oat (Avena fatua); [14]
  Plant response rating, Oat, Wild: 20
Wild oat (Avena fatua); [15]
  Plant response rating, Oat, Wild: 45
[8]; [13]
  Plant response rating, Foxtail, Green: 50
[8]; [14]
  Plant response rating, Foxtail, Green: 85
[8]; [15]
  Plant response rating, Foxtail, Green: 95
[9]; 13 to 15 days
  Bromegrass, Downy plant response rating (0 to 100 scale): 25
[9]; [13]
  Plant response rating, Bromegrass, Downy: 5
[9]; [14]
  Plant response rating, Bromegrass, Downy: 30
[9]; [15]
  Plant response rating, Bromegrass, Downy: 50
[10]; [13]
  Plant response rating, Goosegrass: 85
[10]; [14]
  Plant response rating, Goosegrass: 98
[10]; [15]
  Plant response rating, Goosegrass: 100
[11]; [13]
  Plant response rating, Johnsongrass: 65
[11]; [14]
  Plant response rating, Johnsongrass: 75
[11]; [15]
  Plant response rating, Johnsongrass: 100
[12]; [13]
  Plant response rating, Cupgrass, Woolly: 70
[12]; [14]
  Plant response rating, Cupgrass, Woolly: 80
[12]; [15]
  Plant response rating, Cupgrass, Woolly: 85
